Reference: patent publication US10641778B2, “System and method for analysis of peptide synthesis fidelity” (Roche Sequencing Solutions, Inc., priority 2015, dated 2020)
No end group written: not given here.

Tests used:
[1] = system: engineered form of the protein streptavidin; test: Detection of acetic acid contamination of the arginine synthesis reagent: streptavidin signal output on control peptide features; assay type: binding
Method: In another example according to the present disclosure, a control peptide sequence was used to identify the presence of a contaminant in the arginine synthesis reagent. Preliminarily, it was determined using the methods described herein that the control peptide sequence [N]-GYERPGWKLAG-[C] (SEQ ID NO:19) can be used to detect the presence (or absence) of acetic acid in one or more of the synthesis reagents used to synthesize a population of peptides including the control peptide sequence GYERPGWKLAG (SEQ ID NO:19). In the present example, peptide sequences were synthesized from the C-terminus to the N-terminus. Using this synthesis scheme, it was determined that the amino acid Pro in the 5th position from the N-terminus of SEQ ID NO:19 is susceptible to acetylation in the presence of acetic acid. Without being limited by theory, it is hypothesized that as the direction of synthesis is from the C-terminus to the N-terminus, instead of addition of the amino acid Arg in the 4th position from the N-terminus following addition of the amino acid Pro in the 5th position, acetic acid was able to form an amino acid bond with the terminal proline.
Moreover, the concentration of acetic acid in a synthesis reagent can be correlated with the signal output characteristic of the interaction of the streptavidin receptor with the control peptide feature (SEQ ID NO:19) or the truncated version thereof (SEQ ID NO:20). […] However, the amino acids at the N-terminus should be selected such that there is a detectable difference in the interaction of streptavidin with the alternative control peptide.
To illustrate the detection of varying concentrations of acetic acid in a peptide synthesis reagent, four different NPPOC-protected arginine reagent solutions were prepared with differing concentrations (volume %) of acetic acid. A first arginine solution included no detectable amount of acetic acid (i.e., about 0.00%), a second arginine solution included 0.03% acetic acid, a third arginine solution included a 0.18% acetic acid, and a fourth arginine solution included 0.38% acetic acid. Four different synthetic peptide populations were synthesized using one of the four arginine solutions, and the signal output characteristic of the interaction of the streptavidin receptor with each of the control peptide features (SEQ ID NO:19) or the truncated versions thereof (SEQ ID NO:20) was determined (FIG. 24). […] In the present example, the raw signal output associated with the arginine reagent solution including 0.03% acetic acid was 1000 units, whereas the signal output associated with the arginine reagent solutions including 0.38% acetic acid was about 30,000 units. […]

[2] = biological target: streptavidin (Streptomyces avidinii, UniProt P22629); test: Streptavidin receptor interaction with control peptide features on a peptide array, fluorescence signal (substitution/deletion profiles); assay type: binding; conditions: raw fluorescence signal of streptavidin interaction with control peptide; variants at 6th position from N-terminus (FIG. 8A)
Excerpt: A number of receptor molecules 616 are shown as interacting with the peptide feature 606. Interaction of the receptor molecules 616 with the peptide feature 606 can include binding, catalysis of (or participation in) a reaction including peptides within the peptide feature 606, digestion of the peptides within the feature 606, the like, and combinations thereof. In the present example shown in FIGS. 6A-6C, the receptor 616 was used in the identification of the peptide binder sequence represented by the peptides in the feature 606 (i.e., [N]-Gly-Phe-Glu-Asp-Tyr-Leu-Gly-Glu-Tyr-His-Gly-[C] (SEQ ID NO:1)). […] In one aspect, the interaction of the receptor molecules 616 with the population of peptide features 602 on the peptide array 600 can be detected, for example, by labelling the receptor molecules 616 with a detectable tag 618 (FIG. 6C). […]
In a next step 660 of the method 650, the synthetic peptide population is interrogated in the presence of a receptor having an affinity for the peptide binder sequences encoded by the control peptides. […] Thereafter, in a step 662 of the method 650, an output of the peptide-receptor interaction is detected. […] Accordingly, based on the output detected in the step 662, a step 664 of the method 650 can include assessing the fidelity of amino acid incorporation. […]

Sequence of streptavidin (P22629 25-183, species assumed): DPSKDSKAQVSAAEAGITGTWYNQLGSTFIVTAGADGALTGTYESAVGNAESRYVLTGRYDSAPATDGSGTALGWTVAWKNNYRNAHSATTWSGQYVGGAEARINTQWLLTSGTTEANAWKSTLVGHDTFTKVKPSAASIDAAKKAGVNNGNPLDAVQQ

*PGWKLAG (Ac-PGWKLAG) [*PGWKLAG (SEQ ID NO:20), *P is acetylated N-terminal Pro]
affinity towards an engineered form of the protein streptavidin ([1]; acetylated truncated peptide on array (FIG. 24)): exhibit intrinsic affinity

GWTHPMFEQKG [GWTHPMFEQKG (SEQ ID NO:2)]
average raw signal [2]: 18,000 units

GYERPGWKLAG [GYERPGWKLAG (SEQ ID NO:19), control peptide to detect acetic acid contamination in synthesis reagents]
increase in raw signal ([1]; acetic acid in arginine reagent raised from 0.03% to 0.38%): 30 fold
raw signal output ([1]; control peptide features (SEQ ID NO:19 or truncated SEQ ID NO:20) synthesized with arginine reagent solution including 0.03% acetic acid (FIG. 24)): 1000 units
signal output ([1]; control peptide features (SEQ ID NO:19 or truncated SEQ ID NO:20) synthesized with arginine reagent solution including 0.38% acetic acid (FIG. 24)): about 30,000 units
